Experiment [1] deals with T1, BK receptors in human ciliary muscle cells (h-CM) (Homo sapiens, UniProt P30411).
T1 construct: h-CM cells expressing BK receptors were seeded; endogenous in cells; host or cells: human ciliary muscle (h-CM) cells
T1 sequence (P30411 1-391): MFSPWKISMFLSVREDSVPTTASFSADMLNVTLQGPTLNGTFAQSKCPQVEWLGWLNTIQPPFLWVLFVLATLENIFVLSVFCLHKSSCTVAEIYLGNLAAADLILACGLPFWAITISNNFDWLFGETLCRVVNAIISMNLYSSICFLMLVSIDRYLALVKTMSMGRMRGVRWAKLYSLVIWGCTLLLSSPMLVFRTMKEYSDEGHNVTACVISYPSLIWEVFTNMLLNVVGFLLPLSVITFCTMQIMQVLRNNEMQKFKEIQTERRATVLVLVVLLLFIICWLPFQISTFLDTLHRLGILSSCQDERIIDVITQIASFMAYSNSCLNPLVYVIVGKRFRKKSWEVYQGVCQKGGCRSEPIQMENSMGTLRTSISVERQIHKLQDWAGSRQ
Nature of the experiment: Functional assay measuring [Ca2+]i mobilization (FLIPR) in h-CM cells. In kind it is cell-based. To be noted: class symbols (in μM), read-out: CaM (EC50). A digest of the protocol: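 Human ciliary muscle cells loaded 1 h at 23 °C with FLIPR calcium dye in HBSS, 20 mM HEPES, 2.5 mM probenecid, pH 7.4. EC50 by 4-parameter fit.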

Experiment [2] addresses T2, recombinant human bradykinin B2 receptor (Homo sapiens, UniProt P30411).
T2 construct: expressed in transfected cells; host or cells: Chinese hamster ovary (CHO) cells, membrane homogenates
T2 sequence (P30411 1-391): T1 sequence (P30411 1-391)
Nature of the experiment: [3H]-BK competition radioligand binding to human cloned B2 receptor (CHO cell membranes). To be noted: 0.2 nM [3H]-bradykinin, CHO membranes, 60 min 23° C.; mean ± SEM or single value; Ki from IC50 by Cheng-Prusoff; read-out: [3H]-BK Binding to Human Cloned B2 Receptor (Ki).

Experiment [3] deals with primary human ciliary muscle cells (h-CM). Nature of the experiment: Total prostaglandin (PG) release from primary h-CM cells (EIA). The note with it: Homo sapiens, 1 h, 1 hour at 37° C., class symbols (in μM). In kind it is cell-based. A digest of the protocol: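 Confluent primary h-CM cells, serum-starved (0.8% FBS) 24 h, were exposed to a 9-point concentration series (0.1 nM-10 μM) of bradykinin or BK agonist for 1 hour at 37° C. Total PG released was then quantified by EIA.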

For orientation: EC50 means the concentration needed to bring the measured effect to its halfway point. As usually defined, the Ki is a dissociation constant, usually derived from enzyme kinetics or from competition with a known ligand. On to `COc1nc2c(OCc3c(Cl)ccc(N(C)C(=O)CNC(=O)CCC4CN=C(N)NC4)c3Cl)cccc2n1Cc1ccccn1` (stereo not drawn) [Compound 63], for which the EC50 was less than 0.1 µM in experiment [1] and greater than 1 µM in experiment [3]. Also, in experiment [2], the Ki is 1190 nM.
For `COc1nc2c(OCc3c(Cl)ccc(N(C)C(=O)CNC(=O)CN4CCO[C@@H](C(=O)NC5CC5)C4)c3Cl)cccc2n1Cc1ccccn1` [Compound 84], the EC50 in experiment [1] and in experiment [3] was less than 0.1 µM in each case. In addition, in experiment [2], the Ki was 78.3 nM.
Take `CCc1nc2c(OCc3c(Cl)ccc(N(C)C(=O)CNC(=O)CCc4ccc(NC(C)=O)nc4)c3Cl)cccn2c1C(O)c1ccccn1` (stereo not drawn) [Compound 57]: the EC50 in experiment [1] is 0.1 to 1 µM; in experiment [3], greater than 1 µM. The Ki in experiment [2] was 852 nM.
The matching figures for `CNC(=O)N1CCN(CC(F)(F)C(=O)NCC(=O)N(C)c2ccc(Cl)c(COc3cccc4c3nc(OC)n4Cc3ccccn3)c2Cl)CC1` [Compound 40, 4-(3-((2-((2,4-dichloro-3-(((2-methoxy-1-(pyridin-2-ylmethyl)-1H-benzo[d]imidazol-4-yl)oxy)methyl)phenyl)(methyl)amino)-2-oxoethyl)amino)-2,2-difluoro-3-oxopropyl)-N-methylpiperazine-1-carboxamide]: less than 0.1 µM, 0.1 to 1 µM and 450 nM.
`COc1nc2c(OCc3c(C)ccc(N(C)C(=O)CNC(=O)CCc4cnc5[nH]c(=O)oc5c4)c3C)cccc2n1Cc1ccccn1` [Compound 3, N-(2-((3-(((2-methoxy-1-(pyridin-2-ylmethyl)-1H-benzo[d]imidazol-4-yl)oxy)methyl)-2,4-dimethylphenyl)(methyl)amino)-2-oxoethyl)-3-(2-oxo-2,3-dihydrooxazolo[4,5-b]pyridin-6-yl)propanamide]: the results for the EC50 in experiment [1] and in experiment [3] were less than 0.1 µM and greater than 1 µM, respectively. Besides, the Ki in experiment [2] was determined as 273 nM.
As to `CNC(=O)C1CCCN(CC(=O)NCC(=O)N(C)c2ccc(Cl)c(COc3cccc4c3nc(OC)n4Cc3ccccn3)c2Cl)C1` (stereo not drawn) [Compound 35, 1-(2-(2-((2,4-dichloro-3-((2-methoxy-1-(pyridin-2-ylmethyl)-1H-benzo[d]imidazol-4-yloxy)methyl)phenyl)(methyl)amino)-2-oxoethylamino)-2-oxoethyl)-N-methylpiperidine-3-carboxamide], the EC50 in experiment [1] is less than 0.1 µM; in experiment [3] it was 0.1 to 1 µM. In experiment [2], the Ki came out at 396 nM.
`Cc1cc(OCc2ccccn2)c2cccc(OCc3c(Cl)ccc(N(C)C(=O)CNC(=O)CCc4ccc(NS(C)(=O)=O)cc4)c3Cl)c2n1` [Compound 29, N-(2-((2,4-dichloro-3-(((2-methyl-4-(pyridin-2-ylmethoxy)quinolin-8-yl)oxy)methyl)phenyl)(methyl)amino)-2-oxoethyl)-3-(4-(methylsulfonamido)phenyl)propanamide]: the EC50 in experiment [1] is 0.1 to 1 µM; in experiment [3], greater than 1 µM. Also, the Ki in experiment [2] is 8 ± 3 nM.
Consider `CNC(=O)c1ccc(CCC(=O)NCC(=O)N(C)c2ccc(Cl)c(COc3cccc4c(OCc5ccccn5)cc(C)nc34)c2Cl)cn1` [Compound 27, 5-(3-((2-((2,4-dichloro-3-(((2-methyl-4-(pyridin-2-ylmethoxy)quinolin-8-yl)oxy)methyl)phenyl)(methyl)amino)-2-oxoethyl)amino)-3-oxopropyl)-N-methylpicolinamide], for which the EC50 in experiment [1] and in experiment [3] was 0.1 to 1 µM throughout. For the same molecule, in experiment [2], the Ki stood at 11 nM.
On to `CNC(=O)[C@H]1CCCN(CC(=O)NCC(=O)N(C)c2ccc(Cl)c(COc3cccc4c3nc(OC)n4Cc3ccccn3)c2Cl)C1` [Compound 36, (S)-1-(2-(2-((2,4-dichloro-3-((2-methoxy-1-(pyridin-2-ylmethyl)-1H-benzo[d]imidazol-4-yloxy)methyl)phenyl)(methyl)amino)-2-oxoethylamino)-2-oxoethyl)-N-methylpiperidine-3-carboxamide], for which the EC50 was less than 0.1 µM in experiment [1] and 0.1 to 1 µM in experiment [3]. Also, the Ki in experiment [2] was 220 nM.
`CNC(=O)C1CN(CC(=O)NCC(=O)N(C)c2ccc(Cl)c(COc3cccc4c3nc(OC)n4Cc3ccccn3)c2Cl)CCO1` (stereo not drawn) [Compound 44, 4-(2-((2-((2,4-dichloro-3-(((2-methoxy-1-(pyridin-2-ylmethyl)-1H-benzo[d]imidazol-4-yl)oxy)methyl)phenyl)(methyl)amino)-2-oxoethyl)amino)-2-oxoethyl)-N-methylmorpholine-2-carboxamide]: the EC50 in experiment [1] and in experiment [3] was less than 0.1 µM in each case. In addition, in experiment [2], the Ki worked out at 102 nM.
`CNC(=O)[C@@H]1CN(CC(=O)NCC(=O)N(C)c2ccc(Cl)c(COc3cccc4c3nc(OC)n4Cc3ccccn3)c2Cl)CCO1` [Compound 45, (S)-4-(2-((2-((2,4-dichloro-3-(((2-methoxy-1-(pyridin-2-ylmethyl)-1H-benzo[d]imidazol-4-yl)oxy)methyl)phenyl)(methyl)amino)-2-oxoethyl)amino)-2-oxoethyl)-N-methylmorpholine-2-carboxamide]: the EC50 in experiment [1] and in experiment [3] was less than 0.1 µM throughout. Also, the Ki in experiment [2] was determined as 40 nM.
For `COc1nc2c(OCc3c(Cl)ccc(N(C)C(=O)CNC(=O)[C@H]4CCN(C(=O)OC(C)(C)C)C4)c3Cl)cccc2n1Cc1ccccn1` [Compound 34, (S)-tert-butyl 3-(2-((2,4-dichloro-3-((2-methoxy-1-(pyridin-2-ylmethyl)-1H-benzo[d]imidazol-4-yloxy)methyl)phenyl)(methyl)amino)-2-oxoethylcarbamoyl)pyrrolidine-1-carboxylate], the EC50 in experiment [1] and in experiment [3] was less than 0.1 µM in each case. The Ki in experiment [2] is 77 nM.
For the molecule `COc1nc2c(OCc3c(Cl)ccc(N(C)C(=O)CNC(=O)CCCNC(C)=O)c3Cl)cccc2n1Cc1ccccn1` [Compound 70], the EC50 in experiment [1] was less than 0.1 µM; in experiment [3], 0.1 to 1 µM. For the same molecule, the inhibition constant (Ki) in experiment [2] worked out at 599 nM.
`COc1nc2c(OCc3c(Cl)ccc(N(C)C(=O)CNC(=O)CCN4CCC(NC(C)=O)CC4)c3Cl)cccc2n1Cc1ccccn1` [Compound 8, 3-(4-acetamidopiperidin-1-yl)-N-(2-((2,4-dichloro-3-(((2-methoxy-1-(pyridin-2-ylmethyl)-1H-benzo[d]imidazol-4-yl)oxy)methyl)phenyl)(methyl)amino)-2-oxoethyl)propanamide]: the EC50 in experiment [1] and in experiment [3] was less than 0.1 µM in each case. In experiment [2], the Ki amounted to 68 ± 16 nM.
In the case of `COc1nc2c(OCc3c(Cl)ccc(N(C)C(=O)CNC(=O)CCc4ccc(NC(C)=O)nc4)c3Cl)cccc2n1Cc1ccccn1` [Compound 32, 3-(6-acetamidopyridin-3-yl)-N-(2-((2,4-dichloro-3-(((2-methoxy-1-(pyridin-2-ylmethyl)-1H-benzo[d]imidazol-4-yl)oxy)methyl)phenyl)(methyl)amino)-2-oxoethyl)propanamide], the EC50 in experiment [1] and in experiment [3] was less than 0.1 µM in each case. Besides, the inhibition constant (Ki) in experiment [2] came out at 25 ± 8 nM.
On to `COc1nc2c(OCc3c(Cl)ccc(N(C)C(=O)CNC(=O)CCc4ccc(C(=O)NCCO)cc4)c3Cl)cccc2n1Cc1ccccn1` [Compound 65], for which the EC50 in experiment [1] and in experiment [3] was less than 0.1 µM throughout. In experiment [2], the inhibitory constant (Ki) came out at 98.4 nM.
With `CNC(=O)C1CCN(CCC(=O)NCC(=O)N(C)c2ccc(Cl)c(COc3cccc4c3nc(OC)n4Cc3ccccn3)c2Cl)CC1` [Compound 11], the EC50 was less than 0.1 µM in experiment [1] and greater than 1 µM in experiment [3]. Further, the Ki in experiment [2] came to 391 ± 35 nM.
In the case of `COc1nc2c(OCc3c(Cl)ccc(N(C)C(=O)CNC(=O)CN4CCOC(C(=O)NCCO)C4)c3Cl)cccc2n1Cc1ccccn1` (stereo not drawn) [Compound 80], the values for the EC50 in experiment [1] and in experiment [3] were less than 0.1 µM and 0.1 to 1 µM, respectively. The Ki in experiment [2] came out at 279 nM.
The matching figures for `COc1nc2c(OCc3c(Cl)ccc(N(C)C(=O)CNC(=O)CCC4CN=C(NC(C)=O)NC4)c3Cl)cccc2n1Cc1ccccn1` (stereo not drawn) [Compound 25, 3-(2-acetamido-1,4,5,6-tetrahydropyrimidin-5-yl)-N-(2-((2,4-dichloro-3-(((2-methoxy-1-(pyridin-2-ylmethyl)-1H-benzo[d]imidazol-4-yl)oxy)methyl)phenyl)(methyl)amino)-2-oxoethyl)propanamide]: less than 0.1 µM, 0.1 to 1 µM and 74 ± 6 nM.

For the origin of these results see patent US8252793B2, “Bradykinin receptor agonists and uses thereof to treat ocular hypertension and glaucoma” (Alcon Research, Ltd., priority 2010, dated 2012).
